Laboratory results reported in ChEMBL document CHEMBL5252619, “Sadopeptins A and B, Sulfoxide- and Piperidone-Containing Cyclic Heptapeptides with Proteasome Inhibitory Activity from a Streptomyces sp” (J Nat Prod, 2023).
The source made the active and inactive calls.

Columns and labels:
Proteasome [1] = assay: Inhibition of human proteasome chymotrypsin-like activity using suc-LLVY-AMC as fluorogenic substrate measured for 30 mins in presence of MG132 by fluorescence based assay; assay type: subcellular; conditions: dose 10-50 µM
Proteasome [2] = assay: Inhibition of proteasome caspase-like activity in human A549 cells assessed as cleaved PARP level at 25 to 100 uM measured for 12 hrs in presence of MG132; conditions: dose 25-100 µM
Proteasome [3] = assay: Inhibition of proteasome caspase-like activity in human A549 cells at 25 uM using ZLLE-AMC as fluorogenic substrate preincubated for 15 mins followed by substrate addition and measured after 6 mins by fluorometer analysis; assay type: subcellular
A549 = assay: Cytotoxicity against human A549 cells assessed as reduction in cell viability up to 200 uM measured for 9 hrs by WST-8 assay; assay type: functional, cell-based
Proteasome [4] = assay: Inhibition of human proteasome trypsin-like activity using Boc-LRR-AMC as substrate measured for 30 mins in presence of MG132 by fluorescence based assay; assay type: subcellular; conditions: dose 10-50 µM
Proteasome [5] = assay: Inhibition of proteasome caspase-like activity in human A549 cells assessed as LC3 lipidation at 25 to 100 uM measured for 12 hrs in presence of MG132; conditions: dose 25-100 µM
Proteasome [6] = assay: Inhibition of proteasome caspase-like activity in human A549 cells assessed as increase in caspase-3 level at 25 to 100 uM measured for 12 hrs in presence of MG132; assay type: subcellular; conditions: dose 25-100 µM

CC(C)CC(=O)N[C@@H](CCCNC(N)=O)C(=O)N[C@@H]1C(=O)N[C@@H](CC[S+](C)[O-])C(=O)N[C@H]2CC[C@@H](O)N(C2=O)[C@@H](Cc2ccccc2)C(=O)N(C)[C@@H](Cc2ccc(O)cc2)C(=O)N[C@@H](C(C)C)C(=O)O[C@@H]1C (some centres undefined)
active: inhibition (Proteasome [1]) Dose-Dependent Effect | inhibition (Proteasome [2]) | inhibition (Proteasome [3]) | Activity (A549) | inhibition (Proteasome [4]) Dose-Dependent Effect | inhibition (Proteasome [5]) | inhibition (Proteasome [6])

CCCC(=O)N[C@@H](CCCNC(N)=O)C(=O)N[C@@H]1C(=O)N[C@@H](CC[S+](C)[O-])C(=O)N[C@H]2CC[C@@H](O)N(C2=O)[C@@H](Cc2ccccc2)C(=O)N(C)[C@@H](Cc2ccc(O)cc2)C(=O)N[C@@H](C(C)C)C(=O)O[C@@H]1C (some centres undefined)
active: inhibition (Proteasome [1]) Dose-Dependent Effect | inhibition (Proteasome [2]) | inhibition (Proteasome [3]) | Activity (A549) | inhibition (Proteasome [4]) Dose-Dependent Effect | inhibition (Proteasome [5]) | inhibition (Proteasome [6])
